Source: patent US20260226073A1 (AURIGENE ONCOLOGY LIMITED, priority 2023, published 2026)

What was measured:
[1] = biological target: T1, human recombinant CBL-b (human Biotin CBL-b recombinant protein a.a. 39-426) (Homo sapiens, UniProt Q13191); experiment: Biochemical assay for CBL-b inhibition (ligand displacement TR-FRET); type: binding; conditions: 50 nM CBL-b, 0.3 μM Bodipy FL-Probe, read-out: IC50 (CBL-b inhibition, group)
T1 construct: human Biotin CBL-b recombinant protein a.a; 39-426; Biotin (biotinylated); made in house
T1 sequence (Q13191 39-426): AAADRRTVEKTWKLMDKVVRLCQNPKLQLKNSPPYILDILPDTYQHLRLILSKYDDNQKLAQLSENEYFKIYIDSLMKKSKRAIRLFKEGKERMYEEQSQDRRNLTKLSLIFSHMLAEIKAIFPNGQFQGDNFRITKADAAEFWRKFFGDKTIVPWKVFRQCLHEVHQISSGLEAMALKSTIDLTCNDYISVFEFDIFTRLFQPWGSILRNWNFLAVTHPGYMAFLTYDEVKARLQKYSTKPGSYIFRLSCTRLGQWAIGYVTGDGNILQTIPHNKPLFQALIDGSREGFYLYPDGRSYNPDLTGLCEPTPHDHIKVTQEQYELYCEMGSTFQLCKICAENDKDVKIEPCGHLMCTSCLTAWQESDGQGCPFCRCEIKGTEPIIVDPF
Procedure, shortened: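 Biotinylated CBL-b (a.a. 39-426, 50 nM final) pre-incubated with compound 60 min at RT in HEPES/NaCl/Triton/BSA/TCEP buffer, then Bodipy FL probe (0.3 μM final) 60 min, then terbium-streptavidin 60 min. TR-FRET read at 665/615 nm; IC50 and % max inhibition from sigmoidal fits.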

[2] = system: NFAT signaling pathway in Jurkat NFAT reporter cells; experiment: Jurkat NFAT reporter assay; type: cell-based; conditions: Homo sapiens, 30 min with compound, then soluble anti-human CD3/CD28 antibody for 6 hours, luciferase readout, read-out: EC50 (Group)
Description: A human T lymphocyte Jurkat reporter cell line was further used to assess activation of the nuclear factor of activated T-cells (NFAT) signaling pathway by Cbl-b inhibitors. The reporter cell line is a genetically engineered Jurkat T cell line that expresses a luciferase reporter driven by an NFAT-response element (NFAT-RE). The Cbl-b inhibitor was incubated with 1×10^5 Jurkat NFAT reporter cells per well for 30 minutes. Subsequently, cells were stimulated with soluble anti-human CD3/CD28 antibody for 6 hours resulting in NFAT-RE-mediated luminescence. The bioluminescent signal is detected and quantified using Bio-Glo™ Luciferase Assay System. Readouts were reported as fold change over baseline. Here, baseline was the measurement obtained from Jurkat NFAT reporter cells stimulated with anti-CD3 antibody and anti-CD28 antibody, where the cells were not incubated with a Cbl-b inhibitor.

SMILES | IC50 [1] [nM] | EC50 [2] [nM]
C[C@@H](NC[C@@H]1CCCO1)c1cc(Cl)nc(N2Cc3ccc(C4(Cc5nncn5C)COC4)cc3C2=O)c1 (single isomer, unassigned) [Compound 219] | < 80 | < 300
C[C@@H](NCC1CC(F)(F)C1)c1cc(Cl)nc(N2Cc3ccc(C4(Cc5nncn5C)COC4)cc3C2=O)c1 (single isomer, unassigned) [Compound 221] | < 80 | < 300
C[C@H](NCC1CC(F)(F)C1)c1cc(Cl)nc(N2Cc3ccc(C4(Cc5nncn5C)COC4)cc3C2=O)c1 (single isomer, unassigned) [Compound 222] | < 80 | < 300
C[C@H](NCc1cc(Cl)nc(N2Cc3ccc(C4(Cc5nncn5C)COC4)cc3C2=O)c1)C1CC1 (single isomer, unassigned) [Compound 223] | < 80 | < 300
C[C@@H](NCc1cc(Cl)nc(N2Cc3ccc(C4(Cc5nncn5C)COC4)cc3C2=O)c1)C1CC1 (single isomer, unassigned) [Compound 224] | < 80 | 300 to 1000
C[C@H](NC1CCCC1)c1cc(Cl)nc(N2Cc3ccc(C4(Cc5nncn5C)COC4)cc3C2=O)c1 (single isomer, unassigned) [Compound 231] | < 80 | < 300
C[C@@H](NC1CCCC1)c1cc(Cl)nc(N2Cc3ccc(C4(Cc5nncn5C)COC4)cc3C2=O)c1 (single isomer, unassigned) [Compound 232] | < 80 | < 300
Cn1cnnc1C[C@]1(c2ccc3c(c2)C(=O)N(c2cc(CNCC4CC4)cc(Cl)n2)C3)C[C@H](C#N)C1 (single isomer, unassigned) [Compound 233, (1r,3r)-3-(2-(6-Chloro-4-(((cyclopropylmethyl)amino)methyl)pyridin-2-yl)-3-oxoisoindolin-5-yl)-3-((4-methyl-4H-1,2,4-triazol-3-yl)methyl)cyclobutane-1-carbo-nitrile] | < 80 | < 300
Cn1cnnc1C[C@]1(c2ccc3c(c2)C(=O)N(c2cc(CNCC4CC4)cc(Cl)n2)C3)C[C@@H](C#N)C1 (single isomer, unassigned) [Compound 234, (1s,3s)-3-(2-(6-Chloro-4-(((cyclopropylmethyl)amino)methyl)pyridin-2-yl)-3-oxoisoindolin-5-yl)-3-((4-methyl-4H-1,2,4-triazol-3-yl)methyl)cyclobutane-1-carbonitrile] | < 80 | 1000 to 10000
C[C@H](N[C@H](C)c1cc(Cl)nc(N2Cc3ccc(C4(Cc5nncn5C)COC4)cc3C2=O)c1)C1CC1 (single isomer, unassigned) [Compound 239] | < 80 | < 300
C[C@H](N[C@H](C)C1CC1)c1cc(Cl)nc(N2Cc3ccc(C4(Cc5nncn5C)COC4)cc3C2=O)c1 (single isomer, unassigned) [Compound 240] | < 80 | < 300
Cn1cnnc1C[C@]1(c2ccc3c(c2)C(=O)N(c2cc(CNCC4CCC4)cc(Cl)n2)C3)C[C@H](C#N)C1 (single isomer, unassigned) [Compound 244, (1r,3r)-3-(2-(6-Chloro-4-(((cyclobutylmethyl)amino)methyl)pyridin-2-yl)-3-oxoisoindolin-5-yl)-3-((4-methyl-4H-1,2,4-triazol-3-yl)methyl)cyclobutane-1-carbonitrile] | < 80 | < 300
C[C@H](N[C@@H](C)C1CC1)c1cc(Cl)nc(N2Cc3ccc(C4(Cc5nncn5C)COC4)cc3C2=O)c1 (single isomer, unassigned) [Compound 246] | < 80 | < 300
C[C@H]1CCCN(Cc2cc(F)cc(N3Cc4ccc(C5(Cc6nncn6C)COC5)cc4C3=O)c2)C1 [Compound 3, (S)-2-(3-Fluoro-5-((3-methylpiperidin-1-yl)methyl)phenyl)-6-(3-((4-methyl-4H-1,2,4-triazol-3-yl)methyl)oxetan-3-yl)isoindolin-1-one] | < 80 | 1000 to 10000
